In the supplement of paper PMC10307832:

Compound: CCc1cnn2c(NCc3ccc[n+]([O-])c3)cc(N3CCCC[C@H]3CCO)nc12 [Dinaciclib] + CCNC(=O)c1noc(-c2cc(C(C)C)c(O)cc2O)c1-c1ccc(CN2CCOCC2)cc1 [Luminespib] (partner 0.01 µM)
Test: relative viability (nuclei count vs DMSO), 5 days (fraction); higher = more cells survive
Outline: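 One day after seeding in 1536-well plates, lung cancer cell lines were dosed by pin tool. Dosing was either single-drug or a fixed anchor-drug dose plus five library-drug doses (not always all listed) in √10 steps. After 5 days, nuclei were stained in one fix-and-stain step and counted on 4× images, and relative viability is the nuclei count of treated wells over that of vehicle wells, given as the median of duplicate plates.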

NCI-H647
relative viability (first compound 0.009487 µM): 0.133
relative viability (first compound 0.03 µM): 0.0786
relative viability (first compound 0.09487 µM): 0.049
relative viability (first compound 0.3 µM): 0.0752

NCI-H2009
relative viability (first compound 0.009487 µM): 0.649
relative viability (first compound 0.03 µM): 0.0986
relative viability (first compound 0.09487 µM): 0.101
relative viability (first compound 0.3 µM): 0.101

EPLC-272H
relative viability (first compound 0.009487 µM): 0.2
relative viability (first compound 0.03 µM): 0.0547
relative viability (first compound 0.09487 µM): 0.042
relative viability (first compound 0.3 µM): 0.0355

NCI-H520
relative viability (first compound 0.009487 µM): 0.239
relative viability (first compound 0.03 µM): 0.231
relative viability (first compound 0.09487 µM): 0.222
relative viability (first compound 0.3 µM): 0.217

NCI-H2405
relative viability (first compound 0.009487 µM): 0.688
relative viability (first compound 0.03 µM): 0.231
relative viability (first compound 0.09487 µM): 0.193
relative viability (first compound 0.3 µM): 0.247

NCI-H2085
relative viability (first compound 0.009487 µM): 0.417
relative viability (first compound 0.03 µM): 0.195
relative viability (first compound 0.09487 µM): 0.186
relative viability (first compound 0.3 µM): 0.169

NCI-H322M
relative viability (first compound 0.009487 µM): 0.431
relative viability (first compound 0.03 µM): 0.243
relative viability (first compound 0.09487 µM): 0.265
relative viability (first compound 0.3 µM): 0.229

NCI-H1944
relative viability (first compound 0.009487 µM): 0.799
relative viability (first compound 0.03 µM): 0.142
relative viability (first compound 0.09487 µM): 0.137
relative viability (first compound 0.3 µM): 0.137

LC-2-ad
relative viability (first compound 0.009487 µM): 0.877
relative viability (first compound 0.03 µM): 0.23
relative viability (first compound 0.09487 µM): 0.23
relative viability (first compound 0.3 µM): 0.178

NCI-H358
relative viability (first compound 0.009487 µM): 0.276
relative viability (first compound 0.03 µM): 0.0982
relative viability (first compound 0.09487 µM): 0.0922
relative viability (first compound 0.3 µM): 0.0842

NCI-H2170
relative viability (first compound 0.009487 µM): 0.608
relative viability (first compound 0.03 µM): 0.142
relative viability (first compound 0.09487 µM): 0.142
relative viability (first compound 0.3 µM): 0.146

A-427
relative viability (first compound 0.009487 µM): 0.554
relative viability (first compound 0.03 µM): 0.0941
relative viability (first compound 0.09487 µM): 0.0692
relative viability (first compound 0.3 µM): 0.0782

NCI-H1666
relative viability (first compound 0.009487 µM): 1.07
relative viability (first compound 0.03 µM): 0.361
relative viability (first compound 0.09487 µM): 0.357
relative viability (first compound 0.3 µM): 0.305

LOU-NH91
relative viability (first compound 0.009487 µM): 0.324
relative viability (first compound 0.03 µM): 0.294
relative viability (first compound 0.09487 µM): 0.224
relative viability (first compound 0.3 µM): 0.16

ABC-1
relative viability (first compound 0.009487 µM): 0.581
relative viability (first compound 0.03 µM): 0.209
relative viability (first compound 0.09487 µM): 0.173
relative viability (first compound 0.3 µM): 0.178

NCI-H1651
relative viability (first compound 0.009487 µM): 0.695
relative viability (first compound 0.03 µM): 0.554
relative viability (first compound 0.09487 µM): 0.0648
relative viability (first compound 0.3 µM): 0.0578

201T
relative viability (first compound 0.009487 µM): 1.2
relative viability (first compound 0.03 µM): 0.342
relative viability (first compound 0.09487 µM): 0.24
relative viability (first compound 0.3 µM): 0.256

NCI-H3122
relative viability (first compound 0.009487 µM): 0.115
relative viability (first compound 0.03 µM): 0.122
relative viability (first compound 0.09487 µM): 0.0991
relative viability (first compound 0.3 µM): 0.0858

NCI-H727
relative viability (first compound 0.009487 µM): 0.404
relative viability (first compound 0.03 µM): 0.253
relative viability (first compound 0.09487 µM): 0.301
relative viability (first compound 0.3 µM): 0.282

NCI-H441
relative viability (first compound 0.009487 µM): 0.262
relative viability (first compound 0.03 µM): 0.18
relative viability (first compound 0.09487 µM): 0.177
relative viability (first compound 0.3 µM): 0.193

HOP-62
relative viability (first compound 0.009487 µM): 0.778
relative viability (first compound 0.03 µM): 0.193
relative viability (first compound 0.09487 µM): 0.0765
relative viability (first compound 0.3 µM): 0.0749

RERF-LC-KJ
relative viability (first compound 0.009487 µM): 0.452
relative viability (first compound 0.03 µM): 0.195
relative viability (first compound 0.09487 µM): 0.179
relative viability (first compound 0.3 µM): 0.208

HCC-44
relative viability (first compound 0.009487 µM): 0.61
relative viability (first compound 0.03 µM): 0.2
relative viability (first compound 0.09487 µM): 0.179
relative viability (first compound 0.3 µM): 0.17

LCLC-103H
relative viability (first compound 0.009487 µM): 1.08
relative viability (first compound 0.03 µM): 0.473
relative viability (first compound 0.09487 µM): 0.12
relative viability (first compound 0.3 µM): 0.102

NCI-H1915
relative viability (first compound 0.009487 µM): 0.292
relative viability (first compound 0.03 µM): 0.142
relative viability (first compound 0.09487 µM): 0.0885
relative viability (first compound 0.3 µM): 0.093

ChaGo-K-1
relative viability (first compound 0.009487 µM): 0.342
relative viability (first compound 0.03 µM): 0.182
relative viability (first compound 0.09487 µM): 0.123
relative viability (first compound 0.3 µM): 0.0984

PC-14
relative viability (first compound 0.009487 µM): 0.146
relative viability (first compound 0.03 µM): 0.0837
relative viability (first compound 0.09487 µM): 0.0681
relative viability (first compound 0.3 µM): 0.0507

SK-LU-1
relative viability (first compound 0.009487 µM): 0.198
relative viability (first compound 0.03 µM): 0.138
relative viability (first compound 0.09487 µM): 0.115
relative viability (first compound 0.3 µM): 0.118

NCI-H1437
relative viability (first compound 0.009487 µM): 1.1
relative viability (first compound 0.03 µM): 0.354
relative viability (first compound 0.09487 µM): 0.152
relative viability (first compound 0.3 µM): 0.136

NCI-H1734
relative viability (first compound 0.009487 µM): 0.165
relative viability (first compound 0.03 µM): 0.129
relative viability (first compound 0.09487 µM): 0.119
relative viability (first compound 0.3 µM): 0.0997

LK-2
relative viability (first compound 0.009487 µM): 0.165
relative viability (first compound 0.03 µM): 0.139
relative viability (first compound 0.09487 µM): 0.166
relative viability (first compound 0.3 µM): 0.162

HCC-15
relative viability (first compound 0.009487 µM): 0.122
relative viability (first compound 0.03 µM): 0.1
relative viability (first compound 0.09487 µM): 0.102
relative viability (first compound 0.3 µM): 0.141

NCI-H650
relative viability (first compound 0.009487 µM): 0.54
relative viability (first compound 0.03 µM): 0.185
relative viability (first compound 0.09487 µM): 0.112
relative viability (first compound 0.3 µM): 0.0731

NCI-H2347
relative viability (first compound 0.009487 µM): 0.249
relative viability (first compound 0.03 µM): 0.12
relative viability (first compound 0.09487 µM): 0.105
relative viability (first compound 0.3 µM): 0.118
